In patent US20260250318A1, “COMPOSITIONS AND METHODS FOR CROSSING THE BLOOD BRAIN BARRIER” (VOYAGER THERAPEUTICS, INC., priority 2022, published 2026):

Tests used:
Conditions in all cases: synthetic library passage 3, intravenous, relative to wild-type AAV9
[1] = system: brain, spinal cord, and DRG of the NHPs; test: NGS fold enrichment of synthetic library (passage 3) in NHPs, first cross-species screen; format: in vivo, cynomolgus macaques (Macaca fascicularis)
Summary of the method: (§1)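 Fold enrichment versus wild-type AAV9 was derived by NGS of RT-PCR-amplified RNA from nervous tissue, collected e.g. 28 days after IV dosing […]. The library (passage 3) was given to two NHPs aged 2-4 years and to 6-8-week BALB/c and C57Bl/6 mice (n=3 each).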

brain [2] = test: NGS fold enrichment of synthetic library (passage 3) in BALB/c mice, first cross-species screen; format: in vivo
Summary of the method: as §1

brain [3] = test: NGS fold enrichment of synthetic library (passage 3) in C57Bl/6 mice, first cross-species screen; format: in vivo
Summary of the method: as §1

[4] = RNA from spinal cord of NHPs, NGS
[5] = RNA from brain of BALB/c mice, NGS
[6] = RNA from brain of C57Bl/6 mice, NGS

Row | Sequence | Fold enrichment over AAV9 in the brain of NHPs ([1]; RNA from brain of NHPs, NGS) [fold] | Fold enrichment over AAV9 in the spinal cord of NHPs [1, 4] [fold] | Fold enrichment over AAV9 in the brain of Mice (BALB/c) (brain [2]; [5]) [fold] | Fold enrichment over AAV9 in the brain of Mice (C57Bl/6) (brain [3]; [6]) [fold] | Fold enrichment over AAV9 in the brain of NHPs ([1]; RNA NGS, brain of NHPs) [fold] | Fold enrichment over AAV9 in the spinal cord of NHPs ([1]; RNA NGS, spinal cord of NHPs) [fold] | Fold enrichment over AAV9 in the brain of Mice (BALB/c) (brain [2]; RNA NGS, brain of BALB/c mice) [fold] | Fold enrichment over AAV9 in the brain of Mice (C57Bl/6) (brain [3]; RNA NGS, brain of C57Bl/6 mice) [fold]
1 | GRGPKQSNIQNQQT | 1.125 | 0.737 | 2.490 | 0.771 |  |  |  | 
2 | GSGQNQQNLGKLNT | 1.141 | 0.000 | 0.687 | 0.919 |  |  |  | 
3 | GSGLLHRAQQNQQT |  |  |  |  | 1.569 | 0.724 | 0.646 | 1.583
4 | GSSGIPVSHQNQQT |  |  |  |  | 1.690 | 3.384 | 0.333 | 0.820
5 | GERAFPTSGQNQQT |  |  |  |  | 1.775 | 6.515 | 0.362 | 0.972
6 | GSSREFHSGQNQQT | 1.203 | 1.591 | 0.474 | 0.688 |  |  |  | 
7 | GSGQNQQTVSRQST |  |  |  |  | 1.820 | 0.472 | 0.796 | 1.330
8 | GSLPRGTSDQNQQT |  |  |  |  | 2.362 | 0.000 | 0.495 | 0.453
9 | GAMVSHSSGQNQQT |  |  |  |  | 1.833 | 8.999 | 0.868 | 0.739
10 | GSGQSSYGSGNQQT | 1.257 | 1.686 | 0.456 | 1.161 |  |  |  | 
11 | GRGAVMASGQNQQT |  |  |  |  | 1.072 | 0.923 | 0.605 | 0.783
12 | GSGQAAKSSQNQQT |  |  |  |  | 1.036 | 0.681 | 0.737 | 0.778
13 | GSGQNQQLSAKSST |  |  |  |  | 1.809 | 1.567 | 1.115 | 1.224
14 | GSSSPGASGQNQQT |  |  |  |  | 1.717 | 1.244 | 0.660 | 1.378
15 | GSGQNQQKQNHGNT |  |  |  |  | 1.695 | 5.349 | 1.340 | 1.538
16 | GSGQNQQKVSPLLT | 1.314 | 1.602 | 0.806 | 0.755 |  |  |  | 

Row | Sequence | Fold enrichment over AAV9 in the brain of NHPs ([1]; RNA from brain of NHPs, NGS) [fold] | Fold enrichment over AAV9 in the spinal cord of NHPs [1, 4] [fold] | Fold enrichment over AAV9 in the brain of Mice (BALB/c) (brain [2]; [5]) [fold] | Fold enrichment over AAV9 in the brain of Mice (C57Bl/6) (brain [3]; [6]) [fold] | Fold enrichment over AAV9 in the brain of NHPs ([1]; RNA NGS, brain of NHPs) [fold] | Fold enrichment over AAV9 in the spinal cord of NHPs ([1]; RNA NGS, spinal cord of NHPs) [fold] | Fold enrichment over AAV9 in the brain of Mice (BALB/c) (brain [2]; RNA NGS, brain of BALB/c mice) [fold] | Fold enrichment over AAV9 in the brain of Mice (C57Bl/6) (brain [3]; RNA NGS, brain of C57Bl/6 mice) [fold]
17 | GSSHTQALGQNQQT |  |  |  |  | 1.784 | 0.143 | 0.874 | 0.882
18 | GSRSQYDIGQNQQT |  |  |  |  | 1.706 | 0.112 | 0.193 | 0.528
19 | GATLQVHSGQNQQT |  |  |  |  | 2.122 | 2.219 | 0.545 | 0.623
20 | GSGQNQQTNLGHTT | 1.383 | 1.523 | 1.281 | 1.343 |  |  |  | 
21 | GIILGASSGQNQQT |  |  |  |  | 3.630 | 4.868 | 0.865 | 1.378
22 | GSGQNQQMPGLSST | 1.204 | 1.887 | 0.181 | 0.234 |  |  |  | 
23 | GSRETSLSGQNQQT | 1.373 | 5.193 | 0.203 | 1.364 |  |  |  | 
24 | GSGQYVHVSSNQQT | 1.137 | 1.803 | 0.366 | 0.739 |  |  |  | 
25 | GSGMPIRNVQNQQT |  |  |  |  | 1.584 | 0.138 | 0.631 | 0.684
26 | GSGQMVHTIGNQQT |  |  |  |  | 1.026 | 1.328 | 0.430 | 0.406
27 | GNSSMMGSGQNQQT | 1.239 | 3.856 | 0.364 | 0.656 |  |  |  | 
28 | GGLGSMSSGQNQQT |  |  |  |  | 2.812 | 1.405 | 0.822 | 1.802
29 | GPTNGRSSGQNQQT |  |  |  |  | 2.034 | 8.903 | 1.308 | 0.936
30 | GSGVMTHVLQNQQT |  |  |  |  | 2.692 | 0.347 | 0.533 | 0.370
31 | GSGYSMSQAQNQQT |  |  |  |  | 2.250 | 4.479 | 0.329 | 0.519
32 | GSGQTVVRIANQQT |  |  |  |  | 1.046 | 4.156 | 0.390 | 0.661
